From paper PMC8566451, “Lead optimization of novel quinolone chalcone compounds by a structure–activity relationship (SAR) study to increase efficacy and metabolic stability” (Scientific Reports, 2021) come the findings set out here.

Data set [1] relates to MDA-MB231-TaxR. The data set can be described thus: Sulforhodamine B (SRB) assay. Type of data set: cell-based. Particulars: Homo sapiens, MDA-MB231-TaxR paclitaxel-resistant breast cancer cells, 48 h. An excerpt: We had initially determined that quinolone chalcones were promising anti-proliferative through a first round screening and identified CTR-17 and CTR-20 as favorable structures for anticancer activity. […] We carried out a comparative SAR study to determine if we could further optimize the quinolone chalcone to maximize efficacy. The Sulforhodamine B (SRB) assay was used to measure the anti-proliferative/cell killing activities of CTRs, for which several different cell lines were use: the cervical cancer HeLa, the breast cancer cell lines MDA-MB231, MDA-MB468, MDA-MB231TaxR (an induced paclitaxel-resistant sub-cell line of the MDA-MB231[9]) and MCF7. In addition, a subset was tested against the melanoma cell lines MZ-MEL-3.1, Mel-SOE, UKRV-Mel-38, UKRV-Mel-17 and MDA-MB-435 (Table 1, Supplemental Table S1).
The SRB assay was used to assess drug-induced cytotoxicity and cell proliferation as previously described[2],[33],[34] with a few modifications. Briefly, cells were plated 10,000 to 25,000 cells/cm^2 in 96-well plates (100 µl medium) and allowed to adhere overnight. The cell counts were different for each cell line to ensure optimal cell growth for the duration of the assay. Eight different concentrations of compound solutions using 2–4 times serial dilutions (100 µl). Cells were then incubated for an additional 48 h and then fixed with 100 µl ice-cold 10% (w/v) trichloroacetic acid (TCA) (without removing the cell medium, final concentration, 3.3% of TCA) and stained with 0.4% SRB (w/v) in 1% acetic acid (v/v). The relative growth rate (%) was calculated for each of the compound concentrations according to the following formula: 100 * (T − T0)/(C − T0), in which T is the optical density (OD) after exposure to a certain concentration of the compound after 48 h, T0 is the OD at the start of drug exposure (time zero) and C is the control growth. The GI50 for each compound was obtained from a non-linear sigmoidal dose–response (variable slope) curve fitted by GraphPad Prism v.4.03 software.

In data set [2] the target is tubulin (colchicine binding site) (Sus scrofa, UniProt P02550+P02554). The data set can be described thus: Colchicine binding site competition assay (fluorescence of tubulin-colchicine complex, modified Dixon plot). The note with it: for Ki / mode of inhibition of colchicine binding: modified Dixon plot; for mode of inhibition of colchicine binding: trendlines intersect above the X-axis. The method, then: (a) CTR-21 and CTR-32 inhibit microtubule polymerization in vitro. Spontaneous polymerization of 20 µM porcine tubulin was initiated with the addition of 1 mmol/L GTP at 37 °C and monitored every minute for 60 min in the presence of the indicated concentration of CTR-21, CTR-32, nocodazole, paclitaxel, or a DMSO vehicle control. To make the graph simpler, only 3 µM concentration is shown. The effects of higher doses are shown in Supplemental Fig. S9. […] Fluorescent intensity was compared to the fluorescence of the tubulin-colchicine complex in absence of CTR-21 or CTR-32 (F0). […] A modified Dixon plot was used to determine the inhibitory concentration of CTR-21 and CTR-32 (Ki).
When we added either CTR-21 or CTR-32 to the colchicine-tubulin complex, we observed a reduction in fluorescence in a dose -dependent manner (Fig. 2b).
Microtubule assembly was assessed using a Tubulin Polymerization assay kit (BK011P; Cytoskeleton Inc., Denver, CO). 20 µM of purified porcine tubulin proteins (> 99% purity) were suspended in G-PEM buffer containing 80 mM PIPES, 2 mM MgCl2, 0.5 mM EGTA, 1 mM GTP (pH 6.9) and 20% glycerol. Polymerization was started by incubating at 37 °C and followed by absorbance readings every 1 min at 340 nm for 1 h using a Synergy H4 plate reader.

The nature of data set [3]: Toxicity in mice (body weight, AST/ALT). The data set is classed as in vivo, mouse. The note with it: for liver toxicity (AST and ALT): C57BL/6 mice, up to maximum doses 10 mg (CTR-21) and 50 mg (CTR-32); for toxicity in mice: mice treated at 10 mg/kg. The method, then:
All animal experiments, including animal handling, care, treatments and endpoint determination were reviewed and approved by the Animal Care Committee (ACC) at Laurentian University (Sudbury, Ontario, Canada). We hereby confirm that all animal-based experiments were performed in compliance with relevant guidelines and regulations, including the ARRIVE guidelines (http://www.nc3rs.org.uk/page.asp?id=1357). Weight measurement and AST/ALT experiments were carried out as before.
Neither CTR-21 nor CTR-32 treatment notabl y affect ed the bod y weight of mice treated with CTR-21 or CTR-32. Mice ( C57B L/6) were inject ed (i.p.) ev er y three da ys with the indicated doses of CTR -21 or CTR-32, along with vehicle control. […]
doses used in this experiment (i.e., 10 mg and 50 mg for CTR-21 and CTR-32, respectivel y).
There is no si gnificant changes of AST and ALT between different groups , including vehicl e

For data set [4], the system named is NCI-60 panel of cancer cell lines. The data set can be described thus: NCI-60 panel, SRB colorimetric assay. Type of data set: cell-based. The note with it: 10 μM single dose and five dose data (Supplemental Figs. S1–S8). The method, then:
Supplementa ry Figure l egend
Supplementary Figures S 1- S4.CTR -21 effectivel y prev ent proliferation o f a rep resent ative set […]
of cancer cell lines (NC I-60 panel). Fi gu re S 1: 10 μM of CTR -21 was used against the panel of […]
NC I-60 cancer cell lines including: six leukemia cell lines, nine non-small cell lung cancer cell […]
lines, seven colorectal cancer cell lines, six CNS cancer cell lines, nine mel anoma cell lines, seven ovari an can cer cell lines, seven ren al can cer cell lines, two prostate cancer cell lines and six breast cancer cell lines, utilizing the sulforhodamine B (SRB) colorimetric assa y. Fi gu re S 2- […]
S4: Five dose data for CTR-21.
Supplementary Figures S 5- S8.CTR -32effectivel y prev ent s prolifer ation of a rep resent ative set […]
of cancer cell lines (NC I-60 panel). Fi gu re S 5: 10 μM of CTR -32 was used against the panel of […]
six breast cancer cell lines, utilizing the sulforhodamine B (SRB) colorimetric assa y. Fi gu re S 6- […]
S8: Five dose data for CTR-32.
Supplementa ry Figure S9.CTR -21 and CTR-32 inhibit microtubule pol ymerization in vitro .
Spontaneous pol ymerizat ion of 20µM porcine tubulin was initiated with the addition of 1 […]
mmol/L GTP at 37°C and monitored ever y minut e for 60 minutes in the presence of the […]
indicated concentration of CTR-21, CTR-32, nocodazole, paclitaxel, or a DMSO vehicle […]
Background: Sulforhodamine B stains cellular protein and so reports cell mass.

As usually defined, the GI50 is the concentration at which growth is held to half of that of the control. Lower therefore signals greater sensitivity of the cells. What is called Ki is a measure of affinity in units of concentration, obtained from inhibition or displacement. In turn, `COc1ccccc1C(=O)/C=C/c1cc2cccc(OC)c2[nH]c1=O` [CTR-21, (E)-8-methoxy-3-(3-(2-methoxyphenyl)-3-oxoprop-1-enyl) quinolin-2(1H)-one] came in with a GI50 in data set [1] of 32 ± 8 nM. Also, the “strength of inhibition relative to CTR-32 (Ki ratio)” value in data set [2] (CTR-21 versus CTR-32) was “about 4.9 times”. For the same compound, the Ki in data set [2] came out at 1470 nM. Further, in data set [2], the “mode of inhibition of colchicine binding” value was “competitive inhibitors”. Also, in data set [3], the “liver toxicity (AST and ALT)” value is “do not show notable liver”. Moreover, the ALT in data set [3] (female C57BL/6 mice, 1 mg/kg) is given as 118.03±25.82 U/L; in data set [3] (female C57BL/6 mice, 5 mg/kg) it was 142.17±45.44 U/L; in data set [3] (female C57BL/6 mice, 10 mg/kg), 142.98±45.61 U/L; in data set [3] (male C57BL/6 mice, 1 mg/kg) it was 128.49±60.78 U/L; in data set [3] (male C57BL/6 mice, 5 mg/kg), 142.71±58.30 U/L; in data set [3] (male C57BL/6 mice, 10 mg/kg), 123.93±49.96 U/L. For the same compound, the AST in data set [3] (female C57BL/6 mice, 1 mg/kg) turned out to be 249.47±77.12 U/L; in data set [3] (female C57BL/6 mice, 5 mg/kg), 265.03±97.76 U/L; in data set [3] (female C57BL/6 mice, 10 mg/kg), 319.215±101.93 U/L; in data set [3] (male C57BL/6 mice, 1 mg/kg), 264.42±91.94 U/L; in data set [3] (male C57BL/6 mice, 5 mg/kg), 228.82±42.23 U/L; in data set [3] (male C57BL/6 mice, 10 mg/kg), 242.62±102.65 U/L. The AST/ALT in data set [3] (female C57BL/6 mice, 1 mg/kg) was determined as 2.12; in data set [3] (female C57BL/6 mice, 5 mg/kg), 1.86; in data set [3] (female C57BL/6 mice, 10 mg/kg), 2.23; in data set [3] (male C57BL/6 mice, 1 mg/kg), 2.06; in data set [3] (male C57BL/6 mice, 5 mg/kg) it was 1.60; in data set [3] (male C57BL/6 mice, 10 mg/kg) it was 1.96. For the same compound, in data set [3], the toxicity in mice entry was “no ill-effects observed”. In addition, in data set [4], the “activity against NCI-60 panel” value was “highly effective”.
Take `CCOc1ccccc1C(=O)/C=C/c1cc2ccccc2[nH]c1=O` [CTR-32, (E)-3-(3-(2-ethoxyphenyl)-3-oxoprop-1-enyl)quinolin-2(1H)-one]: the GI50 in data set [1] is 22 ± 4 nM. Besides, in data set [2], the inhibitory constant (Ki) turned out to be 7200 nM and the “mode of inhibition of colchicine binding” value is on record as “competitive inhibitors”. In data set [3], the “liver toxicity (AST and ALT)” value was “do not show notable liver”; the toxicity in mice entry was “no ill-effects observed”. For the same compound, in data set [3] (female C57BL/6 mice, 30 mg/kg), the ALT is 103.54±61.53 U/L, the AST came to 253.74±117.87 U/L and the AST/ALT was determined as 2.45. In data set [3] (female C57BL/6 mice, 50 mg/kg), the ALT was found to be 87.81±25.42 U/L, the AST was determined as 268.16±136.88 U/L and the AST/ALT came out at 3.05. Moreover, in data set [3] (male C57BL/6 mice, 30 mg/kg), the ALT stood at 110.30±44.56 U/L, the AST came out at 288.49±184.97 U/L and the AST/ALT is given as 2.62. In data set [3] (male C57BL/6 mice, 50 mg/kg), this compound came in with an ALT of 96.57±45.23 U/L, an AST of 217.49±39.91 U/L and an AST/ALT of 2.25. In addition, in data set [4], the “activity against NCI-60 panel” value was “highly effective”.
